# Assay results from patent US20240076299A1, “TUBERCULATIN ANALOGS AS ANTIVIRAL AGENTS” (priority 2020, published 2024).
# Read-outs that look alike come from different tables or passages of the source.
# Tests used:
# HIV = assay: microbe, parasite or virus in culture; format: cell-based, HIV-1
# in vitro = settings: human
# A549 cells = settings: human, 2 days
# [1] = Cytotoxicity evaluation using the SRB assay; settings: human, triplicate
# SARS-CoV-2 [2] = tested on: SARS-CoV-2
# SARS-CoV-2 [3] = assay: microbe, parasite or virus in culture; settings: for inhibition at 2 µM: Severe acute respiratory syndrome coronavirus 2, 48 h
# VSV = assay: microbe, parasite or virus in culture; format: cell-based; settings: Vesicular stomatitis virus, read-out: EC50 (nM) VSV
# AIV = assay: microbe, parasite or virus in culture; format: cell-based, avian influenza virus (H5N1); settings: Influenza A virus, read-out: EC50 (nM) AIV
# [4] = CC50 (nM), Table 1, inhibition of cell growth of host A549 cells by 50%
# [5] = read-out: EC50 (2000 nM) SARS-COV-2, % inhibitory effect at 2000 nM against SARS-CoV-2, triplicate
# [6] = CC50 (nM) A549, Table 2, host A549 cells
# [7] = A549 cells, CC50 (nM), Table 1, inhibition of cell growth of host A549 cells by 50%
# [8] = A549 cells, CC50 (nM) A549, Table 2, host A549 cells
# [9] = read-out: EC50 (2000 nM) SARS-COV-2
SMILES,"CC50 at 2 days [1, 4]",EC50 (HIV; Human immunodeficiency virus 1),inhibition at 2 µM (SARS-CoV-2 [3]; [5]),EC50 (VSV),EC50 (AIV),also measured
"COc1cc2c(OC3OCC(O)(CO)C3O)c3c(c(-c4cc5c(cc4O)OCO5)c2cc1OC)C(=O)OC3 (single isomer, unassigned) [Compound 45]",,,,,,EC50 (HIV): 2730 nM; antiviral activity of R atropisomer versus corresponding S atropisomer (HIV): much more potent antiviral activities; CC50 at 2 days (in vitro; CC50 (nM)): 46800 nM
"COc1cc2c(OC3OCC(O)(CO)C3O)c3c(c(-c4cc5c(cc4O)OCO5)c2cc1OC)C(=O)OC3 (single isomer, unassigned) [Compound 46]",,,,,,CC50 (A549 cells): > 50000 nM; EC50 (HIV): 48600 nM
"COc1cc2c(OC3OCC(O)(CO)C3O)c3c(c(-c4cc5c(cc4O)OCO5)c2cc1OC)C(=O)OC3 (single isomer, unassigned) [Compound 47]",,,,,,CC50 (A549 cells): > 25000 nM; EC50 (HIV): > 25000 nM
"COc1cc2c(OC3OCC(O)(CO)C3OC3OCC(O)C(O)C3O)c3c(c(-c4cc5c(cc4O)OCO5)c2cc1OC)C(=O)OC3 (single isomer, unassigned) [Compound 49]",,,,,,EC50 (HIV): 5450 nM; antiviral activity of R atropisomer versus corresponding S atropisomer (HIV): much more potent antiviral activities; CC50 at 2 days (in vitro; CC50 (nM)): 23500 nM
"COc1cc2c(OC3OCC(O)(COC4OCC(O)C(O)C4O)C3OC3OCC(O)C(O)C3O)c3c(c(-c4cc5c(cc4O)OCO5)c2cc1OC)C(=O)OC3 (single isomer, unassigned) [Compound 51]",> 25000 nM,15700 nM,,,,antiviral activity of R atropisomer versus corresponding S atropisomer (HIV): much more potent antiviral activities
"COc1cc2c(OC3OCC(O)(COC4OCC(O)C(O)C4O)C3OC3OCC(O)C(OC4OCC(O)(CO)C4O)C3O)c3c(c(-c4cc5c(cc4O)OCO5)c2cc1OC)C(=O)OC3 (single isomer, unassigned) [Compound 53]",,14700 nM,,,,antiviral activity of R atropisomer versus corresponding S atropisomer (HIV): much more potent antiviral activities; CC50 at 2 days (in vitro; CC50 (nM)): > 25000 nM
COc1cc2c(O[C@@H]3OC[C@@]4(CO)OC(C)(C)O[C@@H]34)c3c(c(-c4ccc5c(c4)OCO5)c2cc1OC)C(=O)OC3 [Compound 9],1180 nM,34.6 nM,> 80%,,,activity against SARS-CoV-2 (conclusion) (SARS-CoV-2 [2]): active molecules
COc1cc2c(O[C@H]3OC[C@@]4(CO)OC(C)(C)O[C@@H]34)c3c(c(-c4ccc5c(c4)OCO5)c2cc1OC)C(=O)OC3 [Compound 10],188 nM,0.97 nM,95.6%,1.5 nM,0.75 nM,"CC50 at 2 days [1, 6]: 400 nM"
COc1cc2c(O[C@@H]3OC[C@@]4(COC(C)=O)OC(C)(C)O[C@@H]34)c3c(c(-c4ccc5c(c4)OCO5)c2cc1OC)C(=O)OC3 [Compound 11],1260 nM,208 nM,> 80%,,,activity against SARS-CoV-2 (conclusion) (SARS-CoV-2 [2]): active molecules
COc1cc2c(O[C@H]3OC[C@@]4(COC(C)=O)OC(C)(C)O[C@@H]34)c3c(c(-c4ccc5c(c4)OCO5)c2cc1OC)C(=O)OC3 [Compound 12],472 nM,26.9 nM,96.3%,,,activity against SARS-CoV-2 (conclusion) (SARS-CoV-2 [2]): active molecules
COc1cc2c(OC3OC[C@@]4(CO[Si](c5ccccc5)(c5ccccc5)C(C)(C)C)OC(c5ccccc5)O[C@@H]34)c3c(c(-c4ccc5c(c4)OCO5)c2cc1OC)C(=O)OC3 (stereo partly drawn) [Compound 16],,6580 nM,32.4%,,,"CC50 at 2 days [1, 7]: > 20000 nM"
COc1cc2c(O[C@@H]3OC[C@@]4(CO)OC(c5ccccc5)O[C@@H]34)c3c(c(-c4ccc5c(c4)OCO5)c2cc1OC)C(=O)OC3 (stereo partly drawn) [Compound 17],,251 nM,66.2%,,,"CC50 at 2 days [1, 7]: 2240 nM"
COc1cc2c(O[C@H]3OC[C@@]4(CO)OC(c5ccccc5)O[C@@H]34)c3c(c(-c4ccc5c(c4)OCO5)c2cc1OC)C(=O)OC3 (stereo partly drawn) [Compound 18],,7.37 nM,98.3%,2.43 nM,0.71 nM,"CC50 at 2 days [1, 8]: 208 nM; CC50 at 2 days [1, 7]: 184 nM"
COc1cc2c(O[C@H]3OC[C@](O)(CO)[C@H]3O)c3c(c(-c4ccc5c(c4)OCO5)c2cc1OC)C(=O)OC3 [Compound 19],368 nM,11.9 nM,98.3%,144 nM,70 nM,"CC50 at 2 days [1, 6]: 2100 nM"
COc1cc2c(O[C@@H]3OC[C@@]4(COC(C)=O)OC(c5ccccc5)O[C@@H]34)c3c(c(-c4ccc5c(c4)OCO5)c2cc1OC)C(=O)OC3 (stereo partly drawn) [Compound 20],2580 nM,280 nM,> 80%,53.8 nM,39.9 nM,"activity against SARS-CoV-2 (conclusion) (SARS-CoV-2 [2]): active molecules; CC50 at 2 days [1, 6]: 1570 nM"
COc1cc2c(O[C@H]3OC[C@@]4(COC(C)=O)OC(c5ccccc5)O[C@@H]34)c3c(c(-c4ccc5c(c4)OCO5)c2cc1OC)C(=O)OC3 (stereo partly drawn) [Compound 21],328 nM,126 nM,96.3%,12 nM,6.25 nM,"CC50 at 2 days [1, 6]: 93 nM"

SMILES,"CC50 at 2 days [1, 4]",EC50 (HIV; Human immunodeficiency virus 1),inhibition at 2 µM (SARS-CoV-2 [3]; [5]),EC50 (VSV),EC50 (AIV),also measured
COc1cc2c(O[C@H]3OC[C@](O)(COC(C)=O)[C@H]3O)c3c(c(-c4ccc5c(c4)OCO5)c2cc1OC)C(=O)OC3 [Compound 23],736 nM,43.4 nM,96.7%,1.24 nM,0.3 nM,"CC50 at 2 days [1, 6]: 158 nM"
COc1cc2c(O[C@H]3OC[C@@]4(CN=[N+]=[N-])OC(C)(C)O[C@@H]34)c3c(c(-c4ccc5c(c4)OCO5)c2cc1OC)C(=O)OC3 [Compound 25],,441 nM,> 80%,4.52 nM,0.72 nM,"activity against SARS-CoV-2 (conclusion) (SARS-CoV-2 [2]): active molecules; CC50 at 2 days [1, 8]: 648 nM; CC50 at 2 days [1, 7]: 1650 nM"
COc1cc2c(O[C@H]3OC[C@@]4(CN)OC(C)(C)O[C@@H]34)c3c(c(-c4ccc5c(c4)OCO5)c2cc1OC)C(=O)OC3 [Compound 26],4550 nM,917 nM,> 80%,0.58 nM,0.79 nM,"activity against SARS-CoV-2 (conclusion) (SARS-CoV-2 [2]): active molecules; CC50 at 2 days [1, 6]: 2.66 nM"
COc1cc2c(O[C@H]3OC[C@@]4(COC(=O)c5ccccc5)OC(C)(C)O[C@@H]34)c3c(c(-c4ccc5c(c4)OCO5)c2cc1OC)C(=O)OC3 [Compound 27],,384 nM,,20.8 nM,16.9 nM,activity against SARS-CoV-2 (conclusion) (SARS-CoV-2 [2]): active molecules; inhibition at 2 µM (SARS-CoV-2 [3]; [9]): 93%; CC50 at 2 days (in vitro; CC50 (nM)): 2220 nM; CC50 at 2 days (in vitro; CC50 (nM) A549): 379 nM
COc1cc2c(O[C@H]3OC[C@@]4(COC(=O)c5ccncc5)OC(C)(C)O[C@@H]34)c3c(c(-c4ccc5c(c4)OCO5)c2cc1OC)C(=O)OC3 [Compound 28],,486 nM,,56.1 nM,16.7 nM,inhibition at 2 µM (SARS-CoV-2 [3]; [9]): 93%; CC50 at 2 days (in vitro; CC50 (nM)): 2210 nM; CC50 at 2 days (in vitro; CC50 (nM) A549): 560 nM
COc1cc2c(O[C@H]3OC[C@@]4(COC(=O)c5cccnc5)OC(C)(C)O[C@@H]34)c3c(c(-c4ccc5c(c4)OCO5)c2cc1OC)C(=O)OC3 [Compound 29],,91.8 nM,95.6%,19.9 nM,8.66 nM,"CC50 at 2 days [1, 8]: 483 nM; CC50 at 2 days [1, 7]: 381 nM"
COc1cc2c(O[C@H]3OC[C@@]4(CN5CCOCC5)OC(C)(C)O[C@@H]34)c3c(c(-c4ccc5c(c4)OCO5)c2cc1OC)C(=O)OC3 [Compound 30],,18 nM,,,,inhibition at 2 µM (SARS-CoV-2 [3]; [9]): 92.7%; CC50 at 2 days (in vitro; CC50 (nM)): 1190 nM
COc1cc2c(O[C@H]3OC[C@@]4(CN(C)C)OC(C)(C)O[C@@H]34)c3c(c(-c4ccc5c(c4)OCO5)c2cc1OC)C(=O)OC3 [Compound 31],1400 nM,177 nM,91.9%,,,
COc1cc2c(O[C@H]3OC[C@@]4(CNC(C)=O)OC(C)(C)O[C@@H]34)c3c(c(-c4ccc5c(c4)OCO5)c2cc1OC)C(=O)OC3 [Compound 32],,80.9 nM,,,,activity against SARS-CoV-2 (conclusion) (SARS-CoV-2 [2]): active molecules; inhibition at 2 µM (SARS-CoV-2 [3]; [9]): 97.4%; CC50 at 2 days (in vitro; CC50 (nM)): 441 nM
COc1cc2c(OC3OC[C@@]4(CO[Si](c5ccccc5)(c5ccccc5)C(C)(C)C)OC(c5ccccc5)O[C@@H]34)c3c(c(-c4cc5c(cc4OCc4ccccc4)OCO5)c2cc1OC)C(=O)OC3 (stereo partly drawn) [Compound 42],,> 25000 nM,,,,"CC50 at 2 days [1, 7]: > 25000 nM"
COc1cc2c(O[C@@H]3OC[C@@]4(CO)OC(c5ccccc5)O[C@@H]34)c3c(c(-c4cc5c(cc4OCc4ccccc4)OCO5)c2cc1OC)C(=O)OC3 (stereo partly drawn) [Compound 43],,> 25000 nM,,,,"CC50 at 2 days [1, 7]: > 25000 nM"
COc1cc2c(O[C@H]3OC[C@@]4(CO)OC(c5ccccc5)O[C@@H]34)c3c(c(-c4cc5c(cc4OCc4ccccc4)OCO5)c2cc1OC)C(=O)OC3 (stereo partly drawn) [Compound 44],,> 25000 nM,,,,"CC50 at 2 days [1, 7]: > 25000 nM"
"COc1cc2c(O)c3c(c(-c4ccc5c(c4)OCO5)c2cc1OC)C(=O)OC3 [Diphyllin (7), diphyllin, reference compound]",,170 nM,,11.2 nM,2.36 nM,inhibition at 2 µM (SARS-CoV-2 [3]; [9]): 94.6%; CC50 at 2 days (in vitro; CC50 (nM)): 2460 nM; CC50 at 2 days (in vitro; CC50 (nM) A549): 1980 nM
"Cc1ccnc2c1NC(=O)c1cccnc1N2C1CC1 [Nevirapine, reference compound]",> 200 nM,35.8 nM,,,,
"CCOC(=O)c1c(CSc2ccccc2)n(C)c2cc(Br)c(O)c(CN(C)C)c12 [arbidol, reference compound]",,,,,,"IC50 (SARS-CoV-2 [3]; Severe acute respiratory syndrome coronavirus 2, HepG2, read-out: IC50 against SARS-CoV-2 pseudovirion): 5230 nM"
